Assay results from patent US9851354B2, “Methods of treating fragile X syndrome and related disorders” (Alcobra Ltd., priority 2013, dated 2017).

Columns and labels:
[1] = system: primary hippocampal neurons from Fmr1 knockout mice; test: Dendritic filopodia density and maturation in vitro; type: cell-based, mouse; settings: neurons from Fmr1 KO mice, 300 μM, five hours
Procedure: (§1) In all cases, saline was used as a vehicle (control).
Hippocampal cell cultures were prepared from wild type and Fmr1 KO fetal mice at embryonic day of gestation 17.5 (E17.5). Mice were killed by cervical dislocation and dissociated hippocampal cells were plated in 15 mm multi well vessels (Falcon Primaria). After 5 d in vitro, green fluorescent protein (GFP) was transfected to facilitate monitoring dendritic spine morphogenesis after drug treatment (Ethell and Yamaguchi, 1999; Ethell et al., 2001, Henkemeyer et al., 2003). Dendritic spines were formed at around 16 days in vitro (DIV).
Filopodia density of GFP transfected neurons was quantified by performing Sholl analyses of stacked Zeiss confocal generated images (40× objective, stack of 20×0.2 μm). With Metamorph software, concentric equally spaced circles (every 20 μm) were drawn around the cell soma of each neuron and subsequently, the amount of filopodia was counted per circle. Averages of counts were compared with unpaired two-tailed Student's T-tests.
Spine maturity of GFP transfected neurons was analyzed with Metamorph software (Molecular Devices, Sunnyvale, Calif.). Two distal dendritic segments of 70 100 μm were chosen per neuron for spine morphometric analysis. For each spine, the length and the width were measured. The length was defined as the distance from the base to the tip of the protrusion; whereas width was defined as the maximum distance perpendicular to the long axis of the spine. Measurements were compared with unpaired two tailed Student's T-tests and ANOVA corrected for multiple comparisons.

[2] = system: Fmr1 knockout (KO) or Wild Type (WT) mice; test: Y-maze spontaneous alternation; type: in vivo, mouse; settings: 2 months old, 150 mg/kg once daily 7 days, Study 1
Procedure: (§2) Fmr1 knockout mice (KO2) mice (The Dutch-Belgium Fragile X Consortium, 1994), initially obtained from the Jackson Laboratory, and wild type (WT) littermates were generated on a C57BL/6J background and repeatedly backcrossed onto a C57BL/6J background for more than eight generations. The Fmr1 knockout mice were housed in groups of the same genotype in a temperature and humidity controlled room with a 12-h light-dark cycle (lights on from 7 am to 7 pm; testing was conducted during light phase). Room temperature and humidity were recorded continuously in the holding room while food and water were available ad libitum. Testing was conducted on healthy Fmr1 knockout mice and their wild type littermates (N=10 mice per treatment group) at 2 or 6 months of age during the behavioral experiments. Mice were housed in commercial plastic cages and experiments were conducted in line with the requirements of the UK Animals (Scientific Procedures) Act, 1986. All experiments were conducted with experimenters blind to genotype and drug treatment. Animals were allowed a minimum acclimatization period of one week prior to performing any experiment. No prophylactic or therapeutic treatment was administered during the acclimatization period.
as §1
(§3) Two tasks were implemented. The first was an unlearned assessment of spontaneous alternation between arm entries. […]

[3] = system: Fmr1 knockout (KO) or Wild Type (WT) mice; test: Successive alleys (anxiety and hyperactivity); type: in vivo, mouse; settings: 2 months old, 150 mg/kg once daily 7 days, Study 1
Procedure: as §2, §1
The apparatus consisted of four successive, linearly arranged, increasingly anxiogenic alleys (each succeeding alley was painted a lighter color, had lower walls and/or was narrower than the previous alley) made of painted wood. Each section or alley was 25 cm long. Alley 1 had 25 cm high walls, was 8.5 cm wide, and was painted black. A 0.5 cm step down led to alley 2, which was again 8.5 cm wide, but had 1.3 cm high walls and was grey. A 1.0 cm step down led to alley 3, which was 3.5 cm wide, had 0.8 cm high walls, and was white. A 0.4 cm step led down to alley 4, which was also white, but had 1.2 cm wide and 0.2 cm high walls. The apparatus was elevated by anchoring the back of alley 1 to a stand, 50 cm high. Padding was provided under arms 3 and 4 in case a mouse fell off. Each mouse was placed at the closed end of alley 1 facing the wall. Timers were started 1) for the overall length of the test (5 min)+the latency to enter each arm, and 2) for the time spent in alley 1. When the mouse placed all 4 feet on to the next alley, it was considered to have entered the alley. Total time spent in each alley (all four feet) was recorded.
Multivariate analysis of variance was employed to assess group differences across data. Repeated measures ANOVA were performed for behavioral data. Statistically significant effects in each ANOVA were followed with post hoc comparisons, using the Newman-Keuls test (Study 1) or the Tukey test (Study 2). A p value of less than 0.05 was considered significant.
The successive alleys test effectively measured anxiety (latency to enter the Alley 1) and hyperactivity (Alleys 2 to 4). Progression from Alley 1 through the successive Alleys 2, 3, and 4 was associated with exposure to an increasingly brightly colored environment with increasingly lower walls and narrower, more exposed open arms. Time spent on, and entries into, the open arms indicated anxiety; conversely, increasing time spent in more open arms reflected hyperactivity. These factors allowed for a sensitive test bracketing a range of anxiety-like behaviors together with hyperactivity.

[4] = cited from earlier work
[5] = system: Fmr1 knockout (KO) or Wild Type (WT) mice; test: Y-maze reference memory task (rewarded); type: in vivo, mouse; settings: 2 months old, 150 mg/kg once daily 7 days, Study 1
Procedure: as §2, §1, §3

[6] = system: hippocampal slices from Fmr1 knockout or WT mice; test: De novo hippocampal protein synthesis in vitro (SUnSET); type: cell-based, mouse; settings: hippocampal slices from Fmr1 KO mice, 300 μM
Procedure: as §1
Transverse hippocampal slices (400 μm) were obtained from 6-week-old Fmr1 knockout and WT mice. A protein synthesis assay was performed as previously described using the nonradioactive fluorescence-activated cell sorting-based assay, surface sensing of translation (SUnSET) method, which allows the monitoring and quantification of global protein synthesis in individual mammalian cells and in heterogeneous cell populations. (Hoeffer, 2011).

Cc1ncc(CO)c(CO)c1O.O=C1CC[C@@H](C(=O)O)N1 [metadoxine, pyridoxol L,2-pyrrolidon-5 carboxylate]
density of neuronal filopodia [1]: reduced the aberrant increase in density of neuronal filopodia
filopodia length [1]: reversed this increase in filopodia length
filopodia width [1]: reversed the decrease in width
Y-maze spontaneous alternation [2]: partial reversal of the deficit
successive alleys, Alley 1 (anxiety) ([3]; Fmr1 KO mice): complete normalization occurred
successive alleys, Alley 2 (hyperactivity) ([3]; Fmr1 KO mice): reversal of hyperactivity was partial
successive alleys, Alley 3 (hyperactivity) ([3]; Fmr1 KO mice): hyperactivity was not reversed
successive alleys, Alley 4 (hyperactivity) ([3]; Fmr1 KO mice): reversed this hyperactivity
successive alleys, Alley 1 (anxiety) ([3]; WT mice): no effect on WT mice
successive alleys, Alley 2 (activity) ([3]; WT mice): no effect on WT mice
successive alleys, Alley 3 (activity) ([3]; WT mice): no effect on WT mice
successive alleys, Alley 4 (activity) ([3]; WT mice): no effect on WT mice
mean half life ([4]; human serum, Lu Yuan et al. 2007): about 0.8 hour
half-life in human serum ([4]; human serum, no appreciable differences between oral and intravenous administration): 40 to 60 min
oral bioavailability ([4]; oral): 60-80%
Y-maze rewarded reference memory learning (appropriate arm entries) ([5]; Fmr1 KO mice): reduced this deficit
Y-maze rewarded reference memory learning ([5]; WT mice): No Effect on WT Mice
basal de novo protein synthesis [6]: reduced protein synthesis rates in Fmr1 knockout mouse hippocampi. This effect was partial
